This is an account of results in patent publication US20050256301A1 (The University of Queensland, priority 1998, published 2005).

pEC50: −log10 of the molar value. Where two headings read alike, the source gives them in different places.

The target in data set [1] is endoproteinase Glu-C (Endo Glu-C) (Staphylococcus aureus, UniProt P0C1U8). The conditions noted are these: pH 8.
For data set [2] the following is noted: human, plasma.
Data set [3] deals with P/Q type Ca channels (Rattus norvegicus, UniProt P54282). It counts as binding.
Data set [4] deals with T1, N-type voltage-sensitive calcium channels (Rattus norvegicus, UniProt Q02294).
T1 construct: Rats were sacrificed by cervical dislocation and their brains removed and immediately frozen in liquid nitrogen; from tissue; host or cells: rat brain membrane
The data set is classed as binding.

Data set [5] concerns bovine adrenal chromaffin cells. The data set is classed as cell-based.
In data set [6] the target is human noradrenaline transporter (NET) (human) (UniProt P23975). The data set is described as follows: displacement of [3H]nisoxetine from COS-7 hNET membranes. (In general: In a radioligand displacement assay an active substance lowers the binding of a labelled ligand.)
The target is the same in data set [7]. The data set is described as above. The source holds these as a separate data set.
Data set [8] has as its target N-type voltage-sensitive calcium channel (rat brain membrane) (rat) (UniProt Q02294).

What is called half-life is the time in which the quantity being followed falls by half. In general, pEC50 refers to the negative decadic logarithm of the EC50, by convention in mol/L.

Chain of human noradrenaline transporter (NET) (human) (P23975 whole entry): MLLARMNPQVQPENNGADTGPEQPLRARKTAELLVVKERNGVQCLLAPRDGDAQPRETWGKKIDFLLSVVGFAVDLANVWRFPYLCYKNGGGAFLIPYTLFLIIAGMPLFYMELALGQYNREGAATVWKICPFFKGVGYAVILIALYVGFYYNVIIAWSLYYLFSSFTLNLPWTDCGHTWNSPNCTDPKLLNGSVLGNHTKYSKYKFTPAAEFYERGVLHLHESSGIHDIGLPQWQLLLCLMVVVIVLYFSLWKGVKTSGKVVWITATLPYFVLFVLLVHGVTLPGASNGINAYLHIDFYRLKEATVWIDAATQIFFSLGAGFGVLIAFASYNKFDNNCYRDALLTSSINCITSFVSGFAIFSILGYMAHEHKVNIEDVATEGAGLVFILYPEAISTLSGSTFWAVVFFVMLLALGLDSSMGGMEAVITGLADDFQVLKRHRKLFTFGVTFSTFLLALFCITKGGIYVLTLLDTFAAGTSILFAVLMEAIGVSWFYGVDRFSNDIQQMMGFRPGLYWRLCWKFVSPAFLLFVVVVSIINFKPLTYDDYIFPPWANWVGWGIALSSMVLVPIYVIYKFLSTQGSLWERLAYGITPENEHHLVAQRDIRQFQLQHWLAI
Chain of P/Q type Ca channels (P54282 whole entry, looked up): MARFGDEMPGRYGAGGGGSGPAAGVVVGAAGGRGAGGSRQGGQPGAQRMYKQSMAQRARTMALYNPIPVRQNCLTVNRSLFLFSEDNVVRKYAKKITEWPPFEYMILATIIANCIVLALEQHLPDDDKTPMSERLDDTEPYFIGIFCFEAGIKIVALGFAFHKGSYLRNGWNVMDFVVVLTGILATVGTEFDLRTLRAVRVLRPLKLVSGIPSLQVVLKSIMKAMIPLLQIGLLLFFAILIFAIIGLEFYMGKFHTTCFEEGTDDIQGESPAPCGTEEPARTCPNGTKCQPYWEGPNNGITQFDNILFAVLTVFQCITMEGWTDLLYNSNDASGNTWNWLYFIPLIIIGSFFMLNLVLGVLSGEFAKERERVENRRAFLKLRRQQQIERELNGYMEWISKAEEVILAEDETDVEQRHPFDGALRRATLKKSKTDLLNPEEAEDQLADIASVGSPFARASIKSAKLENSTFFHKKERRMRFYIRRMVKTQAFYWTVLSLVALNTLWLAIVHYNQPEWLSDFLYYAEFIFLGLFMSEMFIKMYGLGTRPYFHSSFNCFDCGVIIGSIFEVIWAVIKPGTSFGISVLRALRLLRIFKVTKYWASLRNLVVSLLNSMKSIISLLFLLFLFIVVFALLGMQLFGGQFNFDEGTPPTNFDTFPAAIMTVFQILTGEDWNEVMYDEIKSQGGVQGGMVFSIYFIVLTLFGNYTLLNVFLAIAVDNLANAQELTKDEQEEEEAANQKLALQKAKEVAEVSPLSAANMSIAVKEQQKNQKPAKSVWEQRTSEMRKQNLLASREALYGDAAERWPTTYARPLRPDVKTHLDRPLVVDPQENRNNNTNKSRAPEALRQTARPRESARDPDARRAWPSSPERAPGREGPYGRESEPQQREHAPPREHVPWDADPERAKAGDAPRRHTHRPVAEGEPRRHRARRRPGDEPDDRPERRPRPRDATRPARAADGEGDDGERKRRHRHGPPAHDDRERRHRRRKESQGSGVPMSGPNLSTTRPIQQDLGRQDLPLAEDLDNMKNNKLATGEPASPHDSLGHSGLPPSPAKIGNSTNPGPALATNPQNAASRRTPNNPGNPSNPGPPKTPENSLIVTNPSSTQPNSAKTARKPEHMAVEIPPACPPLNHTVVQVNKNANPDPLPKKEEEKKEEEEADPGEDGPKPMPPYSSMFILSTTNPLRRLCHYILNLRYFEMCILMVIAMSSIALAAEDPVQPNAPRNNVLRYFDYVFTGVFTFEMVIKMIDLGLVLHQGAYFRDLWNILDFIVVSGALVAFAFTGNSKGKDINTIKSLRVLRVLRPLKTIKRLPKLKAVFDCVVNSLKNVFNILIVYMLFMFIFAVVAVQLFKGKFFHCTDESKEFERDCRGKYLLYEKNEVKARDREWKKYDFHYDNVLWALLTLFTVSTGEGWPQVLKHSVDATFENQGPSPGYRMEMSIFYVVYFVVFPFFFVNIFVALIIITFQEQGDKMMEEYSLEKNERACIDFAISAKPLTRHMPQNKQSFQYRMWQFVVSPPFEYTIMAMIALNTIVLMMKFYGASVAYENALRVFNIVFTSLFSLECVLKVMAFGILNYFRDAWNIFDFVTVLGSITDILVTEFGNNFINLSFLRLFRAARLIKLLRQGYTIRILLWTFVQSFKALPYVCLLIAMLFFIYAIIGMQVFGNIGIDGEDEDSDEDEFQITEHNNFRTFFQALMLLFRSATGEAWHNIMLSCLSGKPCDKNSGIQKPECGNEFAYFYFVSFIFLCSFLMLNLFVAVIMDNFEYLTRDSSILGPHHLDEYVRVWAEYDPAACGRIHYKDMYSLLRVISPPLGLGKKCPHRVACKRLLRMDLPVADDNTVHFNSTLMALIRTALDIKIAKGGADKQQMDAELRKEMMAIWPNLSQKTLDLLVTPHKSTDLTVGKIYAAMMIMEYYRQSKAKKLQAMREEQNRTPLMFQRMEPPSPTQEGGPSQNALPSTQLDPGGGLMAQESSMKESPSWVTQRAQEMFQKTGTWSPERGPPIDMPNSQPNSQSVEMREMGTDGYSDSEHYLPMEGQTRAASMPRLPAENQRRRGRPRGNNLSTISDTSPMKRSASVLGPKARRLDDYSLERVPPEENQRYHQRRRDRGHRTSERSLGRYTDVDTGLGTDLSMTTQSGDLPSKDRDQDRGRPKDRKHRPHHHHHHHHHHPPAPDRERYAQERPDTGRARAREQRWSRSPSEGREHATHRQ
T1 sequence (Q02294 whole entry, looked up): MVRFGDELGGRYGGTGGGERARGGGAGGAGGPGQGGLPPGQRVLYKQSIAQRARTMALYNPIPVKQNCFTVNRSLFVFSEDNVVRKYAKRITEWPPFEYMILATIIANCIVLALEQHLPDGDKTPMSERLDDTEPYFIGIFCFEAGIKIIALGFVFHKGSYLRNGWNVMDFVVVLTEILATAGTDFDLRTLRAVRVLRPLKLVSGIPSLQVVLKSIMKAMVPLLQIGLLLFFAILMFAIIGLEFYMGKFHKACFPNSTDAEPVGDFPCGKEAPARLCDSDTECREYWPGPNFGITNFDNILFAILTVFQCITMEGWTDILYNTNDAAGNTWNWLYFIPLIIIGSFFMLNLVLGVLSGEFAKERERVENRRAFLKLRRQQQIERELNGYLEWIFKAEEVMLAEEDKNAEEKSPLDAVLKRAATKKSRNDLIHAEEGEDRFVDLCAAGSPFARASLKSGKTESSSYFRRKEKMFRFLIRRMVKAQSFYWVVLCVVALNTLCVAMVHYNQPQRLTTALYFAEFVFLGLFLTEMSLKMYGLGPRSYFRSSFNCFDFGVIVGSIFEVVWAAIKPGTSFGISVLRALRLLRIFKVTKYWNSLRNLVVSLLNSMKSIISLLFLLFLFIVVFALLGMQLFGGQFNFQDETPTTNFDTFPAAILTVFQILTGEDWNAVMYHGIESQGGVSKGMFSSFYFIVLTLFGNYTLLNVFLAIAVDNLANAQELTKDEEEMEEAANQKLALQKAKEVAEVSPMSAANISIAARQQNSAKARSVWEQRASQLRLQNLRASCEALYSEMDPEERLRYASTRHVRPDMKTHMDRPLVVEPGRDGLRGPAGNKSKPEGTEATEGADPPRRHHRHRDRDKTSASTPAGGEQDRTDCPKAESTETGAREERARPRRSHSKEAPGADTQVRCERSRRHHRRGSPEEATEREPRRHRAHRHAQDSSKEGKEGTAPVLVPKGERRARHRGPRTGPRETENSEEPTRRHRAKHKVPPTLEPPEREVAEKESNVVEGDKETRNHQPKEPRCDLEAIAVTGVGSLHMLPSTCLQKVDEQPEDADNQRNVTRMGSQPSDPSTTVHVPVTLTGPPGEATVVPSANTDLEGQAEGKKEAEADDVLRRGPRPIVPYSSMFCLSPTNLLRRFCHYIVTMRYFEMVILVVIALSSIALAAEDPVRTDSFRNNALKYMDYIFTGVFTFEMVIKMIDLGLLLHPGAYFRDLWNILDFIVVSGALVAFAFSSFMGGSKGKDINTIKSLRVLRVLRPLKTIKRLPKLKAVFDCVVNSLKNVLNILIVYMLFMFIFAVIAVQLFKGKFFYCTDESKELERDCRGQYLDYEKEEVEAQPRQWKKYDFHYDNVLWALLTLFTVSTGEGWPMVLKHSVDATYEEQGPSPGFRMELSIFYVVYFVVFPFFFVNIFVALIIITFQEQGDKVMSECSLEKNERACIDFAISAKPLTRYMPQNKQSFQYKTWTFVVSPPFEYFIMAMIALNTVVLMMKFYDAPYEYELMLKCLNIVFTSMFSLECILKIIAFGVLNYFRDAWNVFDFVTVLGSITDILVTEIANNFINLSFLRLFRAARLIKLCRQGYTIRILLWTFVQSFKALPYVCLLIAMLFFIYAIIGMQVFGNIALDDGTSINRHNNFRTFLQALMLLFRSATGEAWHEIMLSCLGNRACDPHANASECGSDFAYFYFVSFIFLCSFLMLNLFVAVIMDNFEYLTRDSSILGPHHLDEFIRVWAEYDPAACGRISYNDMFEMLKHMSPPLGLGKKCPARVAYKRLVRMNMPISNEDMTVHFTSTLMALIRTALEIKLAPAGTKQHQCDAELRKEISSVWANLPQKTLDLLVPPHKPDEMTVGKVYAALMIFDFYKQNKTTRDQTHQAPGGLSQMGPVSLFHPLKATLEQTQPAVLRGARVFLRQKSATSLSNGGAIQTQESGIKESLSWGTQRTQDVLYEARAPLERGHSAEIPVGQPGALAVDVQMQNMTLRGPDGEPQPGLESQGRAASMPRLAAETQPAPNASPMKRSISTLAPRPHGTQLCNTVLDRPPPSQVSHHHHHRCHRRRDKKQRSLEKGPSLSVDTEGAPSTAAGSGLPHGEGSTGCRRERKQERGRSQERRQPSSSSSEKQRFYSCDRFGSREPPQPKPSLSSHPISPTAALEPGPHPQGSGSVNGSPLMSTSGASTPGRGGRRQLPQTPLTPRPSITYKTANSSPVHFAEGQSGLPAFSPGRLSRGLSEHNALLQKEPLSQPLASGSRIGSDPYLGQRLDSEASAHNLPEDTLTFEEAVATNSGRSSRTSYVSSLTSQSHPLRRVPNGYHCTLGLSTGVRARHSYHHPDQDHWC

On to `CC(C)C[C@@H]1NC(=O)[C@H](CC(N)=O)NC(=O)[C@H](CO)NC(=O)[C@H](Cc2cnc[nH]2)NC(=O)[C@H](CCC(=O)O)NC(=O)[C@H](CC(C)C)NC(=O)[C@H](Cc2cnc[nH]2)NC(=O)[C@@H]2CSSC[C@H](NC(=O)CN)C(=O)N[C@@H](CSSC[C@@H](C(N)=O)NC1=O)C(=O)N[C@@H](CO)C(=O)N[C@@H](CC(N)=O)C(=O)N1CCC[C@H]1C(=O)N[C@@H](C(C)C)C(=O)N2` [MII, α-conotoxin MII], for which the values for the half-life in data set [1] and in data set [2] were around 10 h and around 16 h, respectively.

Regarding “CKGKGAKCSRLMYDCCTGSCRSGKCTRNG [cyclo-MVIIA 2]”, in data set [3], the “ability to displace 125I-MVIIC” value is reported as “did not show any ability to displace” and the “selectivity N-type over P/Q-type channel” value is given as “selectivity for the N-type channel over the P/Q-type channel”.

In the case of “CKGKGAKCSRLMYDCCTGSCRSGKCTRNGLPG [cyclo-MVIIA 1]”, the pEC50 in data set [4] is 7.07.

Regarding “GLPVCKGKGAKCSRIMYDCCTGSCRSGKCTRG [SEQ ID NO. 7]”, the pEC50 in data set [4] is 8.97.

On to “Gly Cys Cys Ser Asp Pro Arg Cys Asn Tyr Asp His Pro Glu Ile Cys Gly Gly Ala Ala Gly Gly [cVc1.1-6]”, for which the “inhibition of nicotine-evoked catecholamine release, activity relative to Vc1.1” value in data set [5] was “identical, within experimental error, to that of acyclic Vc1.1”.

In data set [6], “[Sec5,10]MrIA-NH2 (peptide; other documents disagree on this pair)” showed a pEC50 of 5.86 and a log EC50 of -5.86.

On to “χ-conotoxin MrIA-NH2 (peptide; other documents disagree on this pair)”, for which, in data set [6], the negative-log EC50 (pEC50) was 5.74 and the log EC50 was -5.74. For the same compound, the pEC50 in data set [7] was 5.83.

ω-conotoxin MVIIA (peptide): the pEC50 in data set [8] was 10.36.
